The record followed here is patent publication US8952042B2, “FXR (NR1H4) binding and activity modulating compounds” (Phenex Pharmaceuticals AG, priority 2009, dated 2015).

SMILES strings stand for the structures.

The target of series [1] is T1, FXR ligand binding domain (Homo sapiens, UniProt Q96RI1).
T1 construct: expressed in transfected cells; host or cells: HEK293 cells (DSMZ), transient transfection of pCMV-BD-FXR-LBD
T1 sequence (Q96RI1 187-472 isoform Q96RI1-2): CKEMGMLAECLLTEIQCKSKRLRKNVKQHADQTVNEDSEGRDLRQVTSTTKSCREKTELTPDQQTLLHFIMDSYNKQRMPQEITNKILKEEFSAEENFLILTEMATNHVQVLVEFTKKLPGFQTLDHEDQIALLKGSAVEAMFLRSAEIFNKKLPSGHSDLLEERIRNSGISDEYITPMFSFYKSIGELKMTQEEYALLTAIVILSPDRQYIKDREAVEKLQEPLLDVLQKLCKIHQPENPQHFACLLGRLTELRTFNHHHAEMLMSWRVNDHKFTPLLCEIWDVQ
Put plainly: Mammalian One Hybrid (M1H) Gal4 reporter assay in HEK293 cells. In kind it is cell-based. As to conditions: potency range. How it is done: Determination of a ligand mediated Gal4 promoter driven transactivation to quantify ligand binding mediated activation of FXR was performed as follows: The cDNA part encoding the FXR ligand binding domain was cloned into vector pCMV-BD (Stratagene) as a fusion to the yeast GAL4 DNA binding domain under the control of the CMV promoter. The amino acid boundaries of the ligand binding domain were amino acids 187-472 of Database entry NM_005123 (RefSeq). The plasmid pFR-Luc (Stratagene) was used as the reporter plasmid, containing a synthetic promoter with five tandem repeats of the yeast GAL4 binding sites, driving the expression of the Photinus pyralis (American firefly) luciferase gene as the reporter gene. In order to improve experimental accuracy the plasmid pRL-CMV (Promega) was cotransfected. pRL-CMV contains the constitutive CMV promoter, controlling the expression of the Renilla reniformis luciferase. All Gal4 reporter gene assays were done in HEK293 cells (obtained from DSMZ, Braunschweig, Germany) grown in MEM with L-Glutamine and Earle's BSS supplemented with 10% fetal bovine serum, 0.1 mM nonessential amino acids, 1 mM sodium pyruvate, and 100 units Penicillin/[…] per mL at 37° C. in 5% CO2. Medium and supplements were obtained from Invitrogen. For the assay, […] were plated per well in 96 well plates in 100 μL per well MEM without Phenol Red and L-Glutamine and with Earle's BSS supplemented with 10% charcoal/dextran treated FBS (HyClone, South Logan, Utah), 0.1 mM nonessential amino acids, 2 mM glutamine, 1 mM sodium pyruvate, and 100 units Penicillin/[…] per mL, incubated at 37° C. in 5% CO2. The following day the cells were >90% confluence. Medium was removed and cells were transiently transfected using 20 μL per well of a OptiMEM—polyethylene-imine-based transfection-reagent (OptiMEM, Invitrogen; Polyethyleneimine, Aldrich Cat No. 40, 827-7) including the three plasmids described above. MEM with the same composition as used for plating cells was added 2-4 h after addition of transfection mixture. Then compound stocks, prediluted in MEM were added (final vehicle concentration not exceeding 0.1%). Cells were incubated for additional 16 h before firefly and renilla luciferase activities were measured sequentially in the same cell extract using a Dual-Light-Luciferase-Assay system (Dyer et al., Anal. Biochem. 2000, 282, 158-161). All experiments were done in triplicates.

The target in series [2] is T2, human FXR alpha ligand binding domain (Homo sapiens, UniProt Q96RI1).
T2 construct: made in house; host or cells: E. coli BL21(DE3), vector pDEST15
T2 sequence (Q96RI1 187-472 isoform Q96RI1-2): T1 sequence (Q96RI1 187-472 isoform Q96RI1-2)
Put plainly: FRET activity assay (ligand mediated cofactor peptide interaction, LANCE). In kind it is biochemical. As to conditions: potency range. How it is done:
Determination of a ligand mediated cofactor peptide interaction to quantify ligand binding to the nuclear receptor FXR was performed as follows: Preparation of human FXR alpha ligand binding domain: The human FXRalpha LBD was expressed in E. coli strain BL21(DE3) as an N-terminally GST tagged fusion protein. The DNA encoding the FXR ligand binding domain was cloned into vector pDEST15 (Invitrogen). Expression was under control of an IPTG inducible T7 promoter. The amino acid boundaries of the ligand binding domain were amino acids 187-472 of Database entry NM_005123 (RefSeq). Expression and purification of the FXR-LBD: An overnight preculture of a transformed E. coli strain was diluted 1:20 in LB-Ampicillin medium and grown at 30° C. to an optical density of OD600=0.4-0.6. Gene expression was then induced by addition of 0.5 mM IPTG. Cells were incubated an additional 6 h at 30° C., 180 rpm. Cells were collected by centrifugation (7000×g, 7 min, room temperature). Per liter of original cell culture, cells were resuspended in 10 mL lysis buffer (50 mM Glucose, 50 mM Tris pH 7.9, 1 mM EDTA and 4 mg/mL lysozyme) and left on ice for 30 min. Cells were then subjected to sonication and cell debris removed via centrifugation (22000×g, 30 min, 4° C.). Per 10 mL of supernatant 0.5 mL prewashed Glutathione 4B sepharose slurry (Qiagen) was added and the suspension kept slowly rotating for 1 h at 4° C. Glutathione 4B sepharose beads were pelleted by centrifugation (2000×g, 15 sec, 4° C.) and washed twice in wash buffer (25 mM Tris, 50 mM KCl, 4 mM MgCl2 and 1M NaCl). The pellet was resuspended in 3 mL elution buffer per liter of original culture (elution buffer: 20 mM Tris, 60 mM KCl, 5 mM MgCl2 and 80 mM glutathione added immediately prior to use as powder). The suspension was left rotating for 15 min at 4° C., the beads pelleted and eluted again with half the volume of elution buffer than the first time. The eluates were pooled and dialysed overnight in 20 mM Hepes buffer (pH 7.5) containing 60 mM KCl, 5 mM MgCl2 as well as 1 mM dithiothreitol and 10% (v/v) glycerol. The protein was analysed by SDS-Page.
The method measures the ability of putative ligands to modulate the interaction between the purified bacterial expressed FXR ligand binding domain (LBD) and a synthetic biotinylated peptide based on residues 676-700 of SRC-1 (LCD2, 676-700). […] The ligand binding domain (LBD) of FXR was expressed as fusion protein with GST in BL-21 cells using the vector pDEST15. Cells were lysed by sonication, and the fusion proteins purified over glutathione sepharose (Pharmacia) according to the manufacturers instructions. For screening of compounds for their influence on the FXR-peptide interaction, the Perkin Elmer LANCE technology was applied. This method relies on the binding dependent energy transfer from a donor to an acceptor fluorophor attached to the binding partner of interest. For ease of handling and reduction of background from compound fluorescence LANCE technology makes use of generic fluorophore labels and time resolved detection Assays were done in a final volume of 25 μL in a 384 well plate, in a Tris-based buffer (20 mM Tris-HCl pH 7.5; 60 mM KCl, 5 mM MgCl2; 35 ng/μL BSA), containing 20-60 ng/well recombinantly expressed FXR-LBD fused to GST, 200-600 nM N-terminally biotinylated peptide, representing SRC1 aminoacids 676-700, 200 ng/well Streptavidin-xIAPC conjugate (Prozyme) and 6-10 ng/well Eu W1024—antiGST (Perkin Elmer). DMSO content of the samples was kept at 1%. After generation of the assay mix and diluting the potentially FXR modulating ligands, the assay was equilibrated for one hour in the dark at room temperature in FIA-plates black 384 well (Greiner). The LANCE signal was detected by a Perkin Elmer VICTOR2V™ Multilabel Counter. The results were visualized by plotting the ratio between the emitted light at 665 and 615 nm.

The nature of series [3]: UV stability, irradiation at 366 nm on a DMSO thin film, LCMS. In kind it is physicochemical. Particulars: 366 nm emission, 250 μM in DMSO thin film, FIG. 3m. As to the method: A different, more rapid experimental setup was used to investigate a broader set of compounds in comparison to GW4064. The substances were dissolved in reagent grade DMSO (99.5%, Karl Roth) at a concentration of 250 μM. DMSO solution was spread over a silica glass slide to a depth of approximately 2 mm and irradiated using a UV lamp set to 366 nm emission (Benda Instruments, Wiesloch Germany) using an 8 W tube set approximately 2.5 cm from the target materials. The solution was sampled prior to irradiation (T=0 min) and at various intervals thereafter. Stocks and samples were maintained in foil wrapped tubes out of direct light. Samples were injected (2 μL) directly onto a LCMS System for analysis without any further preparation.

In general, EC50 refers to the concentration giving half of the maximal effect. Higher therefore signals lower potency in that assay. Consider `O=C(O)c1ccc(C2CC2c2ccc(OCc3c(-c4c(Cl)cccc4Cl)noc3C3CC3)cc2Cl)cc1` (single isomer, unassigned; (-)) [Example 12c, (−)-4-(2-(2-chloro-4-((5-cyclopropyl-3-(2,6-dichlorophenyl)isoxazol-4-yl)methoxy)phenyl)cyclopropyl)benzoic acid], for which the EC50 in series [1] and in series [2] was 10 to 100 nM each time. Moreover, the “photostability compared to GW4064” value in series [3] is on record as “higher photostability”.
On to `CS(=O)(=O)NC(=O)c1ccc(C2CC2c2ccc(OCc3c(-c4c(Cl)cccc4Cl)noc3C3CC3)cc2Cl)cc1` (stereo not shown) [Example 14, 4-(2-(2-chloro-4-((5-cyclopropyl-3-(2,6-dichlorophenyl)isoxazol-4-yl)methoxy)phenyl)cyclopropyl)-N-(methylsulfonyl)benzamide], for which the EC50 in series [1] is 10 to 100 nM; in series [2], over 100 nM. The “photostability compared to GW4064” value in series [3] is reported as “higher photostability”.
Turning to `Clc1cc(OCc2c(-c3c(Cl)cccc3Cl)noc2C2CC2)ccc1C1CC1c1ccc(-c2nnn[nH]2)cc1` (stereo not shown) [Example 16, 4-((4-(2-(4-(1H-tetrazol-5-yl)phenyl)cyclopropyl)-3-chlorophenoxy)methyl)-5-cyclopropyl-3-(2,6-dichlorophenyl)isoxazole], the values for the EC50 in series [1] and in series [2] were 10 to 100 nM and over 100 nM, respectively. For the same compound, the “photostability compared to GW4064” value in series [3] is “higher photostability”.
For `CC(C)(O)c1onc(-c2c(Cl)cccc2Cl)c1COc1ccc(C2CC2c2ccc(C(=O)O)cc2)c(Cl)c1` (stereo not shown) [Example 17, 4-(2-(2-chloro-4-((3-(2,6-dichlorophenyl)-5-(2-hydroxypropan-2-yl)isoxazol-4-yl)methoxy)phenyl)cyclopropyl)benzoic acid], the EC50 in series [1] and in series [2] was over 100 nM throughout.
Regarding `CC(C)n1nc(C(=O)O)cc1C1CC1c1ccc(OCc2c(-c3c(Cl)cccc3Cl)noc2C2CC2)cc1Cl` (stereo not shown) [Example 20, 5-(2-(2-chloro-4-((5-cyclopropyl-3-(2,6-dichlorophenyl)isoxazol-4-yl)methoxy)phenyl)cyclopropyl)-1-isopropyl-1H-pyrazole-3-carboxylic acid], the EC50 in series [1] and in series [2] was under 10 nM each time. Also, the “photostability compared to GW4064” value in series [3] is recorded as “higher photostability”.
Turning to `CC(C)n1nc(C(=O)O)c2ccc(C3CC3c3ccc(OCc4c(-c5c(Cl)cccc5Cl)noc4C4CC4)cc3Cl)cc21` (stereo not shown) [Example 21, 6-(2-(2-chloro-4-((5-cyclopropyl-3-(2,6-dichlorophenyl)isoxazol-4-yl)methoxy)phenyl)cyclopropyl)-1-isopropyl-1H-indazole-3-carboxylic acid], the EC50 in series [1] and in series [2] was under 10 nM throughout.
Turning to `Cc1cc(C2CC2c2ccc(OCc3c(-c4c(Cl)cccc4Cl)noc3C3CC3)cc2Cl)cc(C)c1C(=O)O` (stereo not shown) [Example 23, 4-(2-(2-chloro-4-((5-cyclopropyl-3-(2,6-dichlorophenyl)isoxazol-4-yl)methoxy)phenyl)cyclopropyl)-2,6-dimethylbenzoic acid], the EC50 in series [1] is under 10 nM; in series [2], 10 to 100 nM.
The corresponding values for `O=C(O)c1ccc(C2CC2c2ccc(OCc3c(-c4ccccc4OC(F)(F)F)noc3C3CC3)cc2Cl)cc1` (stereo not shown) [Example 24] are over 100 nM and over 100 nM.
In the case of `O=C(O)CNC(=O)c1ccc(C2CC2c2ccc(OCc3c(-c4c(Cl)cccc4Cl)noc3C3CC3)cc2Cl)cc1` (stereo not shown) [Example 28, 2-(4-(2-(2-chloro-4-((5-cyclopropyl-3-(2,6-dichlorophenyl)isoxazol-4-yl)methoxy)phenyl)cyclopropyl)benzamido)acetic acid], the EC50 in series [1] and in series [2] was over 100 nM throughout.
